Test results as given in patent US20220110902A1, “Methods of treating amyloid-beta peptide diseases” (Ecole Polytechnique Federale de Lausanne, priority 2016, published 2022).
“Also recorded” adds a separate entry of the source.

Columns and labels:
GMC101 worms [1] = assay: Development and growth of GMC101 worms; assay type: in vivo, C. elegans; settings: GMC101, eggs to day 1 of adulthood; dox 15 μg/mL
Experimental: Development: 50 adult worms per condition were transferred on NGM agar plates (10 worms per plate) and allowed to lay eggs for 3 h. Then they were removed and the number of eggs per plate was counted. 72 h later, the number of L1-L3 larvae, L4 and adult worms was counted. The experiment was done twice with five individual plates.

[2] = test system: SH-SY5Y neuroblastoma cell line expressing the APP Swedish K670N/M671L double mutation (APPSwe); assay: Immunostaining of intracellular Aβ deposits in APPSwe SH-SY5Y cells; assay type: cell-based, human
Experimental: The SH-SY5Y neuroblastoma cell line expressing the APP Swedish K670N/M671L double mutation (APPSwe) was a kind gift of Prof. Cedazo-Minguez (Karolinska Institute, Sweden). Cells were grown in DMEM/F-12, supplemented with 10% fetal bovine serum (FBS, Gibco), GlutaMAX (100×, Gibco) and penicillin/streptomycin (1×, Gibco). Cells were selected in 4 μg/mL Geneticin® Selective Antibiotic (G418 Sulfate, Sigma) and grown for three generations before experiments with cells plated and passaged at 4×10^3 cells/ml and 60% confluence, respectively. Cells were cultured at 37° C. under a 5% CO2 atmosphere and tested for mycoplasma using Mycoprobe (#CUL001B, R&D systems) following the manufacturer's instructions. Cells were treated with 10 μg/mL dox, NR 1 or 3 mM, ISRIB 0.5 μM (Sigma), as indicated for 24 hours before cell harvesting or fixation. For the immunostaining, cells were fixed with 1× Formal-Fixx (Thermo Scientific) for 15 min. After 15 min permeabilization with 0.1% Triton X-100, cells were blocked in PBS supplemented with 5% fetal bovine serum for 1 hour and immunostained overnight, at 4° C., with the anti-β-Amyloid 1-42 (1:100, Millipore AB5078P). The secondary antibody was coupled to the Alexa-488 fluorochrome (Thermo Scientific), and nuclei were stained with DAPI (Invitrogen, D1306). After washing in PBS, cell slides were mounted with Dako mounting medium (Dako, S3023) and examined with a Zeiss LSM 700 confocal microscope (Carl Zeiss MicroImaging) equipped with a Plan-Apochromat 40×/1.3 NA oil immersion objective lens using a 488 nm laser. Laser power was set at the lowest intensity allowing clear visualization of the signal. Imaging settings were maintained with the same parameters for comparison between different experimental conditions.
The SH-SY5Y neuroblastoma cell line expresses the APP Swedish K670N/M671L double mutation (APPSwe) (Zheng et al., 2011) and accumulates intracellular Aβ amyloid aggregates. Cells were grown in DMEM/F-12, supplemented with 10% fetal bovine serum (FBS, Gibco), GlutaMAX (100×, Gibco) and penicillin/streptomycin (1×, Gibco). Cells were selected in 4 μg/mL Geneticin® Selective Antibiotic (G418 Sulfate, Sigma) and grown for three generations before experiments with cells plated and passaged at 4×10{right arrow over ( )}3 cells/ml and 60% confluence, respectively. Cells were cultured at 37° C. under a 5% CO2 atmosphere and tested for mycoplasma using Mycoprobe (#CUL001B, R&D systems), following the manufacturer's instructions. Myriocin was dissolved in DMSO.
Cells were treated with 10 uM Myriocin and Fumonisin B1 for 24 hours before harvesting or fixation (FIG. 3A). For immunostaining, cells were fixed with 1× Formal-Fixx (Thermo Scientific) for 15 min. […]

SH-SY5Y(APPSwe) cells = assay: Western-blot and transcript analysis in SH-SY5Y(APPSwe) cells; assay type: cell-based, human; settings: ISRIB 0.5 μM with dox 10 μg/mL, 24 h
Experimental: Human: Total RNA was extracted using guanidine-isothiocyanate lysis (PureLink, Ambion, Waltham, Mass.) from cortex samples, and RNA integrity and concentration was verified using Bioanalysis (Agilent, Santa Clara, Calif.). Samples were randomized based on diagnostic group and assayed in triplicate on a real-time PCR cycler (ABI 7500, Applied Biosystems, Foster City) in 96-well optical plates. qPCR was performed using Taqman hydrolysis probe primer sets (Applied Biosystems) specific for the following human transcripts: HSPA9, HSPD1, YMEIL1, DNM1L, BECN1, SQSTM1, PARK2, COX5A, CYC1. A primer set specific for human GAPDH was used as a control housekeeping transcript. For the APPSwe-expressing SH-SY5Y cell line, total RNA was extracted […] using TriPure RNA isolation reagent, and expression of selected transcripts was analyzed using the LightCycler480 system (Roche) and LightCycler® 480 SYBR Green I Master reagent (Roche). The GAPDH gene was used as housekeeping reference. The ddCT method was employed to determine relative levels of each amplicon. […] The SH-SY5Y neuroblastoma cell line expressing the APP Swedish K670N/M671L double mutation (APPSwe) was a kind gift of Prof. Cedazo-Minguez (Karolinska Institute, Sweden). Cells were grown in DMEM/F-12, supplemented with 10% fetal bovine serum (FBS, Gibco), GlutaMAX (100×, Gibco) and penicillin/streptomycin (1×, Gibco). Cells were selected in 4 μg/mL Geneticin® Selective Antibiotic (G418 Sulfate, Sigma) and grown for three generations before experiments with cells plated and passaged at 4×10^3 cells/ml and 60% confluence, respectively. Cells were cultured at 37° C. under a 5% CO2 atmosphere and tested for mycoplasma using Mycoprobe (#CUL001B, R&D systems) following the manufacturer's instructions. Cells were treated with 10 μg/mL dox, NR 1 or 3 mM, ISRIB 0.5 μM (Sigma), as indicated for 24 hours before cell harvesting or fixation. For the immunostaining, cells were fixed with 1× Formal-Fixx (Thermo Scientific) for 15 min. […]

GMC101 worms [3] = assay: Worm phenotypic assays in GMC101: mobility, paralysis and death score; assay type: in vivo, C. elegans; settings: GMC101, period of 4 days; UA 20 uM and 50 uM
Experimental: Doxycycline was obtained from Sigma-Aldrich and dissolved in water. For experiments, a final concentration of 15 μg/mL was used. Olaparib (AZD2281) was dissolved in DMSO to experimental concentrations of 300 nM. Nicotinamide Riboside triflate (NR) was custom synthesized by Novalix (www.novalix-pharma.com/) and dissolved in water, and used at a final concentration of 1 mM. Compounds were added just before pouring the plates. For phenotyping experiments, parental F0 L4 worms were allowed to reach adulthood and lay eggs on the treatment plates. The deriving F1 worms were therefore exposed to compounds during the full life from eggs until death. For RNA analysis experiments, synchronized L1 worms were exposed to the compounds until harvest. To ensure a permanent exposure to the compound, plates were changed twice a week.
Mobility: C. elegans movement analysis was performed as described, starting from day 1 of adulthood, using the Movement Tracker software. The experiments were repeated at least twice.
Paralysis and death score: 5 L4 worms per condition were allowed to reach adulthood and lay eggs on the treatment plates. 45 to 60 deriving F1 worms per condition were manually scored for paralysis after poking, as already described. Worms that were unable to respond to any, repeated stimulation, were scored as dead. Results are representative of the data obtained in at least three independent experiments.
(§1) During the assays, animals were exposed to Myriocin (dissolved in DMSO) from the egg stage on plates seeded with live HT115 E. coli bacteria. Control plates seeded with the same bacteria were prepared with the corresponding concentrations of DMSO. The day of the experiment (day 1 of adulthood, 3 days after hatching), the GMC101 population was shifted to 25° C. in order to induce the amyloid deposition in the body wall muscle. ˜1000 worms were used for western blotting assays.
C. elegans movement analysis was performed as described (Mouchiroud et al., 2016), using the Movement Tracker software. ˜50 adult worms were used per condition for movement assays.
To score for paralysis and death, 50 worms per condition were manually scored after poking as described (McCool et al., 2012; Florez-McClure et al., 2007). Worms that were unable to respond to repeated stimulation were scored as dead.
as §1, with “the compound UA” for “Myriocin (dissolved in DMSO)”, “from” for “from the”, “DMSO (0.1%).” for “DMSO.”, “˜50 adult” for “˜1000”, “per conditions.” for “for western blotting assays.”
C. elegans movement analysis was performed as described in (Mouchiroud et al., 2016), using the Movement Tracker software within a period of 4 days.

GMC101 worms [4] = assay: Western-blot of amyloid aggregation in GMC101 worms; assay type: in vivo, C. elegans; settings: GMC101, 24 h after shift to 25° C.; UA 20 uM and 50 uM
Experimental: C. elegans: Worms were lysed by sonication with RIPA buffer containing protease and phosphatase inhibitors (Roche), and analyzed by SDS-PAGE and western blot. The concentration of extracted protein was determined by using the Bio-Rad Protein Assay. Proteins were detected using the following antibodies: anti-β-actin (Sigma), anti-tubulin (Santa Cruz), atp-5, ucr-1 (Oxphos cocktail, Abcam), anti-β-Amyloid, 1-16 (6E10) (BioLegend). In addition to the housekeeping proteins, loading was monitored by Ponceau Red to ensure a homogeneous loading. Pixel intensity was quantified by using ImageJ software. Each immunoblot experiment was repeated at least twice using 3 biological replicates each containing approximately 1000 worms.
as §1
(§2) Worms were lysed by sonication with RIPA buffer containing protease and phosphatase inhibitors (Roche), and analyzed by western blot. The concentration of extracted protein was determined by the Bio-Rad Protein Assay. Proteins were detected using the following antibodies: anti-β-actin (Sigma) and anti-β-Amyloid (BioLegend). In addition to the housekeeping proteins, loading was monitored by Ponceau Red to ensure a homogeneous loading. The immunoblot experiment employed 3 biological replicates, each containing approximately 1000 worms.
as §2, with “extracted proteins” for “extracted protein”, “3 biologicals” for “3 biological”
The GMC101 worms were recovered 24 h after being shifted at 25° C. The population was treated with UA at two different concentrations, ie 20 uM and 50 uM.

C. elegans = settings: cited from earlier work
[5] = test system: mouse models of age-related decline of muscle function; settings: mouse models of age-related decline of muscle function, and young rats; cited from earlier work

Structure (SMILES): C[C@H]1c2cccc(O)c2C(=O)C2=C(O)[C@]3(O)C(=O)C(C(N)=O)=C(O)[C@@H](N(C)C)[C@@H]3[C@@H](O)[C@@H]21 [dox, doxycycline]
- development and growth delay (GMC101 worms [1]): without causing major development and growth delays

Structure (SMILES): O=C(COc1ccc(Cl)cc1)NC1CCC(NC(=O)COc2ccc(Cl)cc2)CC1 (centres unmarked) [ISRIB, reference compound]
- amyloid clearance by dox after ISRIB pretreatment ([2]; ISRIB 0.5 μM with dox 10 μg/mL, 24 h): prevented amyloid clearance by dox
- dox-mediated induction of ATF4 target genes CHOP and CHAC1 (SH-SY5Y(APPSwe) cells): hampered the dox-mediated induction

Structure (SMILES): CCCC[C@H](C)[C@@H](OC(=O)C[C@H](CC(=O)O)C(=O)O)[C@@H](C[C@H](C)C[C@@H](O)CCCC[C@@H](O)C[C@H](O)[C@H](C)N)OC(=O)C[C@H](CC(=O)O)C(=O)O [Fumonisin B1, (2S,2'S)-2,2′-{[(5S,6R,7R,9R,11S,16R,18S,19S)-19-Amino-11,16,18-trihydroxy-5,9-dimethylicosane-6,7-diyl]bis[oxy(2-oxoethane-2,1-diyl)]}disuccinic acid]
- intracellular Aβ deposits ([2]; 10 uM, 24 hours): significantly reduced; also recorded: markedly reduced

Structure (SMILES): O=c1oc2cc(O)ccc2c2ccc(O)cc12 [UA, 3,8-Dihydroxyurolithin]
- spontaneous movement (mobility) (GMC101 worms [3]): dose-dependently increased; also recorded: dose-dependent increase
- accumulation of amyloid-β aggregates (GMC101 worms [4]): dose-dependently reduced; also recorded: dose-dependent reduction
- mitochondrial respiratory capacity (C. elegans; C. elegans during aging): maintaining mitochondrial respiratory capacity
- accumulation of dysfunctional mitochondria with age (C. elegans; C. elegans): prevent the accumulation of dysfunctional mitochondria with age
- activity during aging (mobility and pharyngeal pumping) (C. elegans; C. elegans): maintained normal activity during aging
- lifespan (C. elegans; C. elegans): extended lifespan
- exercise capacity [5]: significantly improved exercise capacity
